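Five compound concentrations were applied to cells in 96-well plates for 48 hours; endpoints were derived by simple linear interpolation of the resulting dose-response curve. GI50: concentration for 50% inhibition of growth. TGI: total growth inhibition.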
Legend:
Test in all cases: NCI tumour cell line growth inhibition, 48 h
HT29 colon = system: HT29 colon
HOP-62 NSCLC = system: HOP-62 NSCLC
OVCAR-3 ovarian = system: OVCAR-3 ovarian
OVCAR-5 ovarian = system: OVCAR-5 ovarian
A498 renal = system: A498 renal
HCT-116 colon = system: HCT-116 colon
CCRF-CEM leukemia = system: CCRF-CEM leukemia
A549 NSCLC = system: A549 NSCLC
SW-620 colon = system: SW-620 colon
SR leukemia = system: SR leukemia

| Compound | TGI (HT29 colon) | TGI (HOP-62 NSCLC) | TGI (OVCAR-3 ovarian) | TGI (OVCAR-5 ovarian) | TGI (A498 renal) | TGI (HCT-116 colon) | TGI (CCRF-CEM leukemia) | TGI (A549 NSCLC) | TGI (SW-620 colon) | TGI (SR leukemia) | GI50 (SW-620 colon) |
| --- | --- | --- | --- | --- | --- | --- | --- | --- | --- | --- | --- |
| Cc1cc2c(c(C(=O)NCCC(=O)N[C@@H](C)C(=O)OCc3ccccc3)c1)Oc1c(cc(C)cc1C(=O)NCCC(=O)N[C@@H](C)C(=O)OCc1ccccc1)S2 | > 100 µM | > 100 µM | > 100 µM | > 100 µM | > 100 µM | > 100 µM | > 100 µM | > 100 µM | > 100 µM | > 100 µM |  |
| COc1ccc2c(c1)CC1(O)COc3cc(OC)ccc3C1O2 (stereo not drawn) | > 100 µM | > 100 µM | > 100 µM | > 100 µM | > 100 µM | > 100 µM | > 100 µM | > 100 µM | > 100 µM | > 100 µM |  |
| COc1ccc(N2C(N)=C(C#N)C(C#N)(C#N)C2c2cccc([N+](=O)[O-])c2)cc1 (stereo not drawn) | 29.1 µM | 30.9 µM | 30.1 µM | 34.5 µM | 29.9 µM | 23.8 µM | > 24.6 µM | 34.2 µM | 26 µM | > 66 µM |  |
| c1ccc(CCN2CCN=C2Cc2ccccc2)cc1 | > 100 µM | > 100 µM | > 100 µM | > 100 µM | > 100 µM | > 100 µM | > 100 µM | > 100 µM | > 100 µM | > 100 µM |  |
| CN(C)CCCNc1cnc2cc3ccccc3cc2n1 | 30.5 µM | > 100 µM | > 100 µM | 81.9 µM | > 100 µM | 99.3 µM | 88.1 µM | > 100 µM | > 100 µM | > 100 µM |  |
| NNC(=O)CCC(NS(=O)(=O)c1ccc(Cl)cc1)C(=O)NN (stereo not drawn) | > 100 µM | > 100 µM | > 100 µM | > 100 µM | > 100 µM | > 100 µM | > 100 µM | > 100 µM | > 100 µM | > 100 µM |  |
| COc1ccc(NCc2cnc3nc(N)nc(N)c3c2C)cc1 | > 100 µM | > 100 µM | > 100 µM | > 100 µM | > 100 µM |  | > 100 µM | > 100 µM | > 100 µM | > 100 µM |  |
| CCOC(=O)c1cn(CC)c2cc3c(cc2c1=O)CCS3(=O)=O | > 100 µM | > 100 µM | > 100 µM | > 100 µM | > 100 µM | > 100 µM | > 100 µM | > 100 µM | > 100 µM | > 100 µM |  |
| O=C(Cc1ccccc1)N=Nc1c(O)[nH]c2ccccc12 | > 100 µM | > 100 µM | > 100 µM | > 100 µM | 80.4 µM | > 100 µM | > 100 µM | > 100 µM |  | > 100 µM |  |
| O=c1oc2c/c(=C\c3ccccc3)c(=O)c3cccc1c3-2 | > 100 µM | 44.1 µM | 63 µM | > 100 µM | > 100 µM | 71.2 µM |  | > 100 µM | 57.1 µM | > 100 µM |  |
| COc1ccc2oc(=Nc3ccc(F)cc3)c(C(N)=O)cc2c1 | > 100 µM | > 100 µM | > 100 µM | > 100 µM | 58.7 µM | > 100 µM | > 100 µM | > 100 µM | > 100 µM | > 100 µM |  |
| CCCCNC(=S)c1ccc(OC(=O)Nc2ccc(Cl)cc2)cc1 | > 100 µM | > 100 µM | > 100 µM | > 100 µM | > 100 µM | > 100 µM | > 100 µM | > 100 µM | > 100 µM | > 100 µM |  |
| O=[N+]([O-])c1ccc2nc(/C=C(\O)c3ccccc3)c(/C=C(\O)c3ccccc3)nc2c1 | > 100 µM | 35.2 µM | 31.3 µM | > 100 µM | > 86.2 µM | > 37.8 µM | 35.8 µM | > 58.5 µM | 61.4 µM | > 94.9 µM | 6.11 µM |
| NC(=O)C[C@H](NC(=O)C1(NC(=O)[C@H](Cc2ccc(CP(=O)(O)O)cc2)NC(=O)C(=O)O)CCCCC1)C(=O)NCCCc1cccc2ccccc12 | > 10 µM | > 10 µM | > 10 µM | > 10 µM | > 10 µM | > 10 µM | > 10 µM | > 10 µM | > 10 µM | 7.86 µM |  |
| N#CCOc1cccc(C2(N3CC=CCC3)CCCCC2)c1 | > 100 µM | > 100 µM | > 100 µM | > 100 µM | > 100 µM | > 100 µM | > 100 µM | > 100 µM | > 100 µM | > 100 µM |  |
| COP(=O)(OC)c1ccc(NCc2cc(O)ccc2O)cc1 | 56.3 µM | > 84.7 µM | 16.5 µM | > 60.1 µM | > 100 µM | > 59.7 µM | > 95.3 µM | > 100 µM | > 100 µM | > 83.4 µM |  |
| COc1ccc(-c2nnc(CCCCCCCCc3nnc(-c4ccc(OC)cc4)n3N)n2N)cc1 | > 100 µM | 65.8 µM | > 100 µM | > 100 µM | > 100 µM | > 100 µM | > 100 µM | > 100 µM | > 100 µM | > 100 µM |  |
| Cc1cc2c(cc1-c1cc3c(cc1C)C(C(C)C)=C(O)C(=O)/C3=C\Nc1c(C)n(C)n(-c3ccccc3)c1=O)/C(=C/Nc1c(C)n(C)n(-c3ccccc3)c1=O)C(=O)C(O)=C2C(C)C | > 100 µM | > 100 µM | > 100 µM | > 100 µM | > 100 µM | > 100 µM | > 100 µM | > 100 µM | > 100 µM | > 100 µM |  |
| Cc1oncc1NC1=CC(=O)C(=O)c2ccccc21 | 11.6 µM | 36.8 µM | 4.97 µM | 26.5 µM | 17.9 µM | 10.6 µM | 15 µM | 15.7 µM | 17.1 µM | 34.6 µM |  |
| CCCCCC(O)(CCCCC)CCCCCCCCC1=C(O)c2ccccc2C(=O)C1=O | 27.9 µM | 25.6 µM | 29.4 µM | 46.1 µM | 21.5 µM | 15.2 µM | > 100 µM | > 53.6 µM | 32 µM | 13.9 µM |  |
